Four molecules from US8673843B2, “NMDA receptors modulators and uses thereof” (Northwestern University, priority 2010, dated 2014) can be followed below.

This test has as its target NMDA receptor (Rattus norvegicus, UniProt P35439). The test can be described thus: [3H] MK-801 binding assay. The note with it: 50 μM glutamate; for Potency: rat forebrain crude synaptic membranes, [3H]MK-801 5 nM. On the procedure:
Male 2-3 month old rats were decapitated without anesthesia by guillotine, and the brains were rapidly removed (˜90 sec) and whole cortex and hippocampus dissected on an ice cold platform, frozen on dry ice, and stored at −80° C. Samples were homogenized in 20 volumes of ice cold 5 mM Tris-HCl pH 7.4 by Brinkman Polytron and pelleted 48,000×g for 20 min at 4° C., and washed an additional 3 times as described above. Membranes were then resuspended in 5 mM EDTA and 15 mM Tris-HCl pH 7.4 and incubated for 1 hr at 37° C., membranes pelleted at 48,000×g for 20 min at 4° C., snap frozen in liquid nitrogen, and stored at −80° C. On the day of the experiment, membranes were thawed at room temperature and washed an additional 7 times in ice cold 5 mM Tris-HCl (pH 7.4) as described above. After the last wash, membranes were resuspended in assay buffer (5 mM Tris-acetate pH 7.4), and protein content was determined by the BCA assay.
[^3H] […] Then the tubes were washed three times with assay buffer (5 mM Tris-acetate PH 7.4), and the filters were analyzed by liquid scintillation to calculate the disintegrations per minute (DPM). Zero levels were determined in the absence of any glycine ligand and in the presence of 30 μM 5,7-Dichlorokynurenic acid (5,7-DCKA). Maximal stimulation was measured in the presence of 1 mM glycine. 50 μM glutamate was present in all samples.
For each data point (i.e., a single concentration of the test compound), the % maximal [^3H]
The efficacy for each compound, expressed as the % increase in [^3H]

Residues, ends and D or L forms follow the SMILES beside them.

`C[C@@H](O)[C@H](NC(=O)[C@@H]1CCCN1C(=O)[C@@H]1CCCN1C(=O)[C@@H](N)CO)C(N)=O` [Compound A, (S)—N-((2S,3R)-1-amino-3-hydroxy-1-oxobutan-2-yl)-1-((S)-1-((S)-2-amino-3-hydroxypropanoyl)pyrrolidine-2-carbonyl)pyrrolidine-2-carboxamide] (H-SPPT-NH2): the Potency came to 5 pM.

As for `C[C@@H](O)[C@H](N)C(=O)N1CCC[C@H]1C(=O)N1CCC[C@H]1C(=O)N[C@@H](CO)C(N)=O` [Compound B, (S)—N—((S)-1-amino-3-hydroxy-1-oxopropan-2-yl)-1-((S)-1-((2S,3R)-2-amino-3-hydroxybutanoyl)pyrrolidine-2-carbonyl)pyrrolidine-2-carboxamide] (H-TPPS-NH2), the Potency amounted to 6 pM. Also, the “Efficacy (% Increase in [3H] MK-801 Binding)” value (best-fit top value, relative to 1 mM glycine maximal stimulation) was 24%. Molecule `NC(=O)[C@H](CO)NC(=O)[C@@H]1CCCN1C(=O)[C@@H]1CCCN1C(=O)[C@@H](N)CO` [Compound C, (S)—N—((S)-1-amino-3-hydroxy-1-oxopropan-2-yl)-1-((S)-1-((S)-2-amino-3-hydroxy-propanoyl)-pyrrolidine-2-carbonyl)-pyrrolidine-2-carboxamide] (H-SPPS-NH2) yielded a Potency of 16 pM. Molecule `C[C@@H](O)[C@H](N)C(=O)N1CCC[C@H]1C(=O)N1CCCC1(Cc1ccccc1)C(=O)N[C@H](C(N)=O)[C@@H](C)O` (stereo partly drawn) [E, N-((2S,3R)-1-amino-3-hydroxy-1-oxobutan-2-yl)-1-((S)-1-((2S,3R)-2-amino-3-hydroxybutanoyl)-pyrrolidine-2-carbonyl)-2-benzylpyrrolidine-2-carboxamide] yielded a Potency of 0.2 pM.
